Source: patent US8841285B2, “Potent immunosuppressive agents, derivatives and uses” (priority 2002, dated 2014)

Assays:
[1] = tested on: HCV IRES-mediated translation; assay: in vitro translation in RRL, HCV IRES cistron; format: biochemical, rabbit; settings: 100 nM
Experimental: In vitro Translation and Transcription. pSP/(CAG)33/FF/HCV/Ren·pA51 and pKS/FF/EMC/Ren were linearized by BamHI, then purified by phenol:chloroform extraction and ethanol precipitation, and dissolved in water. pSP/(CAG)33/FF/HCV/Ren·A51 and pKS/FF/EMC/Ren were individually transcribed using a large scale RNA production system in the presence of m7Gppp cap analog followed by incubation with DNase as described by the manufacturer. Resulting RNA was purified using a kit as described by the manufacturer. Translation was performed using a rabbit reticulocyte lysate system as per instructions. Briefly, 200 ng of purified RNA was combined in a 20 μl reaction containing 10 μl RRL, 0.2 μl each of minus Met and minus Leu amino acid mixtures, 70 mM KCl, 2 mM DTT, 1× translation buffer, and 10 units of RNasin. Compounds or DMSO were added to a final DMSO concentration of 2%. Reactions were incubated at 30° C. for 1.5 h, then 5 μl of the reaction mixture was assayed for luciferase activity as per instructions of luciferas reporter assay system.

[2] = target: T1, eIF4A-eIF4G (Homo sapiens, UniProt P60842); assay: 6XHis-eIF4AI pulldown, eIF4A-eIF4G interaction; format: binding; settings: HeLa lysate; PatA at 100 μM
T1 construct: The entire ORF of human eIF4AI was ligated in-frame into the BamHI and HindIII sites of the pET-28a expression vector; made in house; host or cells: bait from E. coli BL21(DE3); eIF4G endogenous in HeLa lysate
T1 sequence (P60842 whole entry): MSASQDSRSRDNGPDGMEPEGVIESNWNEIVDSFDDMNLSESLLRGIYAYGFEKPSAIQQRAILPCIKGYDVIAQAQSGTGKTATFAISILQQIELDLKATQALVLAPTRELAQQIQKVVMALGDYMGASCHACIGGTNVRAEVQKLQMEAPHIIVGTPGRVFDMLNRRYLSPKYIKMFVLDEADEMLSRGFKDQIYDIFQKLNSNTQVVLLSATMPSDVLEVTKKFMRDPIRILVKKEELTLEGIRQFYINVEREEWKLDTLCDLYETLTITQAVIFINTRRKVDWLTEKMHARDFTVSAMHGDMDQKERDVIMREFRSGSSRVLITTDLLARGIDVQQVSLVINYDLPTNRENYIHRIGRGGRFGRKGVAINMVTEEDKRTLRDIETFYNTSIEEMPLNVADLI
Experimental: 6XHis-eIF4AI pulldown, Co-immunoprecipitation, and m^7GTP-Sepharose pulldown. For 6XHis-eIF4AI pulldowns, HeLa lysates were prepared as described above. Equal aliquots (200 μl) of lysate were incubated with PatA analogs or DMSO and 8.5 μg of 6XHis-eIF4AI overnight at 4° C., followed by addition of Ni-NTA resin for 1 h, then resin was washed with 3 ml buffer, and boiled in SDS-PAGE loading buffer followed by SDS-PAGE and immunoblotting with indicated antibodies. For co-immunoprecipitation, 293T cells with vector control or pcDNA3-Flag-4B lysates were prepared by pipetting in: 20 mM HEPES, pH 7.4, 100 mM KCl, 0.5% Triton-X-100, 20% glycerol, protease inhibitor and 15 μg/ml RNAse A followed by clearing at 13 000 g (10 min). For DMDA-PatA treated samples, lysis and wash buffers also contained 100 nM DMDA-PatA. Anti-Flag antibody was incubated overnight at 4° C., followed by addition of Protein G beads for 4 h. Beads were washed 3× with 500 μl buffer, boiled in SDS-PAGE loading buffer followed by SDS-PAGE and immunoblotting. m^7GTP-Sepharose was performed as described (Yoder-Hill et al., 1993) with modifications. 30 μl RRL was incubated with DMSO or DMDA-PatA at room temperature for 30 min, diluted with buffer supplemented with DMSO or DMDA-PatA (20 nM), then combined with 50 μl beads for 3 h at 4° C. followed by 4 washes with 1 ml buffer. […]

[3] = tested on: 293T cells; assay: cellular polyribosome profiles; format: cell-based; settings: 30 min treatment
Experimental: Cellular polyribosome profiles. 293T cells were treated as indicated for 30 min. Cells were washed twice with ice-cold PBS and pipetted for 5 min in 500 μl of chilled TMK100 buffer (20 mM Tris-HCl pH 7.4, 5 mM MgCl2 100 mM KCl, 2 mM DTT, 1% Triton X-100 and 100 U/ml RNAsin in DEPC water). After clearing at 10,000×g (10 min) at 4° C., the supernatant (S10) was layered onto 11 ml, 15-45% linear sucrose gradient containing 20 mM HEPES pH 7.4, 100 mM KCl, 5 mM MgCl2 and 2 mM DTT. Ultracentrifugation at 40,000 rpm for 1.5 h at 4° C. was performed in a suitable rotor. Fractions were collected from the top of the gradient by injection of Flurinert FC-40 from bottom of centrifuge tube. Gradient profiles were monitored at 254 nm. For immunoblotting, 7 mg of total protein were processed as described above, followed by collection of 500 μl fractions were collected from the top. 100 μl aliquots of each were boiled in SDS sample buffer, followed by SDS-PAGE and immunoblotting.

[4] = target: T2, eIF4AI (Homo sapiens, UniProt P60842); assay: RNA-dependent ATPase activity of recombinant 6XHis-eIF4AI; format: biochemical; settings: saturating poly(U) RNA
T2 construct: The entire ORF of human eIF4AI was ligated in-frame into the BamHI and HindIII sites of the pET-28a expression vector; 6XHis (N); made in house; host or cells: E. coli BL21(DE3)
T2 sequence (P60842 whole entry): as above
Experimental: Recombinant proteins. The entire ORF of human eIF4AI was ligated in-frame into the BamHI and HindIII sites of the pET-28a expression vector after PCR amplification from HeLa cells. Protein was produced in BL21(DE3) E. coli cultured in LB medium by induction with 1 mM IPTG for 6 h at 37° C. Cells were lysed by sonication and protein was purified using Ni-NTA resin as described by the manufacturer. For pET(His6-eIF4B), induction conditions were for 72 h at 16° C. Purification included a 1 ml Heparin column with a linear KCl gradient (50-500 mM).
ATPase and Helicase. ATPase activity was performed as described (Korneeva et al., 2005) with minor modifications. Reactions contained 2.5% DMSO, 6XHis-eIF4AI concentration was 0.56 μM, and reaction time was 10 min at 37° C. in buffer: 20 mM Tris-HCl, pH 7.5, 0.5 mM MgCl2, 100 mM KCl, 2 mM DTT, 0.1% (v/v) Tween 20, 10% (v/v) glycerol, 1 mg/ml BSA, and reactions were supplemented with 3-5 μCi of [γ-^32P]-ATP (6000 Ci/mmol). Saturating poly(U) concentrations were 1239 μM (nucleotides/20). Released phosphate was visualized on 15% native TBE polyacrylamide gels followed by autoradiography of wet gels (30 min exposure). Film was aligned with gels and spots were excised and ^32P levels were quantified by scintillation counting. Km and Vmax were determined by curve fitting. […]

SMILES	inhibition of HCV IRES-mediated (eIF4A-independent) translation [1]	effect on eIF4A-eIF4G interaction [2]	effect on polysome profile [3]	effect on Km ATP [4]	effect on kcat [4]
CC(/C=C/C(C)=C/[C@@H]1Cc2nc(cs2)[C@@H](C)C[C@@H](N)CC(=O)O[C@@H](C)C/C(C)=C/C=C\C(=O)O1)=C\CN(C)C [Pat A (1), Pateamine A]	not inhibited	disrupted	depletion of polysomes		
CC(/C=C/C(C)=C/[C@@H]1Cc2nc(cs2)CCCCC(=O)O[C@@H](C)C/C(C)=C/C=C\C(=O)O1)=C\CN(C)C [compound 3, desmethyl, desamino-pateamine A]				significant decrease	marginally increased
